Results from PMC11845761, “Intestinal human carboxylesterase 2 (CES2) expression rescues drug metabolism and most metabolic syndrome phenotypes in global Ces2 cluster knockout mice” (Acta Pharmacologica Sinica, 2024).
Like-named read-outs stand apart in the source and are kept apart here. Marks after values point to notes of the source that are not given here. Values belong to the compound of their own block, whether it stands above or below them.

Experiments:
[1] = irinotecan i.v. or orally administered; Ces2^–/– vs wild-type mice; data not shown
[2] = Tissue concentrations of capecitabine and its metabolites 2 h after oral capecitabine in CES2-modified mice; type: in vivo, mouse; conditions: oral capecitabine 500 mg/kg; for concentration at 2 h: female, mouse, oral, 500 mg/kg
Method: (§1) For capecitabine 2-h experiments, 6–7 female mice received oral capecitabine (500 mg/kg, 10 μL/g), and tail vein blood samples were collected at 0.125, 0.25, 0.5 and 1 h after drug administration. For the vinorelbine 4-h experiment, 6-7 male mice received vinorelbine intravenously (10 mg/kg, 5 μL/g) or orally (10 mg/kg, 10 μL/g) using a blunt-ended needle. Tail vein blood samples were collected at 0.125, 0.25, 0.5, 1 and 2 h after drug administration. […] At the last time point in each experiment (2 or 4 h), mice were anesthetized with 5% isoflurane and blood was collected by cardiac puncture. […] Plasma was isolated from the blood by centrifugation at 9000 × g for 6 min at 4 °C, and the plasma fraction was collected and stored at −30 °C until analysis.
(§2) Concentrations of capecitabine (and its metabolites) and vinorelbine (and its metabolite) in mouse plasma samples and organ homogenates were determined using two independent validated high-performance liquid chromatography-tandem mass spectrometry assays.
(§3) Pharmacokinetic parameters were calculated by non-compartmental methods using the PK solver software. […] Differences were considered statistically significant when P < 0.05. All data are presented as mean ± SD.

[3] = Plasma pharmacokinetics of capecitabine and its metabolites after oral capecitabine in CES2-modified mice; type: in vivo, mouse; conditions: oral capecitabine 500 mg/kg, plasma; for AUC(0-t) / Cmax / Tmax: female, mouse, po, 500 mg/kg; for AUC(0-t): read-out: AUC0-2h; for Tmax: read-out: Tmax
Method: as §1, §2, §3

[4] = Ces2^–/– (Ces2 cluster knockout), female Ces2^–/– mice

Structure (SMILES): CCc1c2c(nc3ccc(O)cc13)-c1cc3c(c(=O)n1C2)COC(=O)[C@]3(O)CC [SN-38]
effect of mCes2 cluster knockout on plasma levels [1]: no significant effect

Colon concentration ratio (metabolite/capecitabine) ([2]; female Ces2^–/– mice): 0.14 ± 0.03
Liver concentration ratio (metabolite/capecitabine) ([2]; female Ces2^–/– mice): 0.09 ± 0.03
Small intestine concentration ratio (metabolite/capecitabine) ([2]; female Ces2^–/– mice): 0.32 ± 0.10
Small intestine contents Ratio (x 10^-3) (5-FU/Capecitabine) ([2]; female Ces2^–/– mice): 2.1 ± 0.7 x 10^-3
Colon concentration ratio (metabolite/capecitabine) ([2]; female Ces2^–/–A mice): 0.17 ± 0.02
Liver concentration ratio (metabolite/capecitabine) ([2]; female Ces2^–/–A mice): 0.52 ± 0.25
Small intestine concentration ratio (metabolite/capecitabine) ([2]; female Ces2^–/–A mice): 0.32 ± 0.11
Small intestine contents Ratio (x 10^-3) (5-FU/Capecitabine) ([2]; female Ces2^–/–A mice): 1.9 ± 1.6 x 10^-3
Colon concentration ratio (metabolite/capecitabine) ([2]; female Ces2^–/–V mice): 0.50 ± 0.18^###^^^
Liver concentration ratio (metabolite/capecitabine) ([2]; female Ces2^–/–V mice): 0.24 ± 0.07***^###^
Small intestine concentration ratio (metabolite/capecitabine) ([2]; female Ces2^–/–V mice): 2.0 ± 0.9^###^^^
Small intestine contents Ratio (x 10^-3) (5-FU/Capecitabine) ([2]; female Ces2^–/–V mice): 6.8 ± 3.0##^^ x 10^-3
Colon concentration ratio (metabolite/capecitabine) ([2]; female wild-type mice): 0.53 ± 0.09
Liver concentration ratio (metabolite/capecitabine) ([2]; female wild-type mice): 0.65 ± 0.31
Small intestine concentration ratio (metabolite/capecitabine) ([2]; female wild-type mice): 2.1 ± 0.8
Small intestine contents Ratio (x 10^-3) (5-FU/Capecitabine) ([2]; female wild-type mice): 5.1 ± 3.4 x 10^-3
concentration at 2 h ([2]; Ces2^-/-, liver, female Ces2^–/– mice, read-out: Cliver (liver concentration)): 1520 ± 765 ng/g
concentration at 2 h ([2]; Ces2^-/-, small intestine, female Ces2^–/– mice, read-out: CSI (small intestine tissue concentration)): 5200 ± 2040 ng/g
concentration at 2 h ([2]; Ces2^-/-A, liver, female Ces2^–/–A mice, read-out: Cliver (liver concentration)): 2140 ± 372 ng/g
concentration at 2 h ([2]; Ces2^-/-A, small intestine tissue, female Ces2^–/–A mice, read-out: CSI (small intestine tissue concentration)): 4430 ± 1510 ng/g
concentration at 2 h ([2]; Ces2^-/-V, liver, female Ces2^–/–V mice, read-out: Cliver (liver concentration)): 1420 ± 574 ng/g
concentration at 2 h ([2]; Ces2^-/-V, small intestine, female Ces2^–/–V mice, read-out: CSI (small intestine tissue concentration)): 4120 ± 1840 ng/g
concentration at 2 h ([2]; colon, female Ces2^–/– mice, read-out: Ccolon (colon concentration)): 1830 ± 1010 ng/g
concentration at 2 h ([2]; colon, female Ces2^–/–A mice, read-out: Ccolon (colon concentration)): 1460 ± 233 ng/g
concentration at 2 h ([2]; colon, female Ces2^–/–V mice, read-out: Ccolon (colon concentration)): 2100 ± 1020 ng/g
concentration at 2 h ([2]; colon, female wild-type mice, read-out: Ccolon (colon concentration)): 1190 ± 486 ng/g
concentration at 2 h ([2]; liver, female wild-type mice, read-out: Cliver (liver concentration)): 747 ± 184 ng/g
concentration at 2 h ([2]; small intestine contents, female Ces2^–/– mice, read-out: CSIC (small intestine contents concentration)): 200 ± 109 ng/g
concentration at 2 h ([2]; small intestine contents, female Ces2^–/–A mice, read-out: CSIC (small intestine contents concentration)): 142 ± 64 ng/g
concentration at 2 h ([2]; small intestine contents, female Ces2^–/–V mice, read-out: CSIC (small intestine contents concentration)): 263 ± 149 ng/g
concentration at 2 h ([2]; small intestine contents, female wild-type mice, read-out: CSIC (small intestine contents concentration)): 125 ± 90 ng/g
concentration at 2 h ([2]; small intestine tissue, female wild-type mice, read-out: CSI (small intestine tissue concentration)): 3020 ± 835 ng/g
AUC0-2h ratio (×10^−3) (5-FU/capecitabine) ([3]; female Ces2^–/– mice): 6.4 ± 2.1 ×10^−3
AUC0-2h ratio (×10^−3) (5-FU/capecitabine) ([3]; female Ces2^–/–A mice): 8.0 ± 2.7 ×10^−3
AUC0-2h ratio (×10^−3) (5-FU/capecitabine) ([3]; female Ces2^–/–V mice): 13 ± 1.6***^###^ ×10^−3
AUC0-2h ratio (×10^−3) (5-FU/capecitabine) ([3]; female wild-type mice): 29 ± 8.1 ×10^−3
AUC(0-t) [3, 4]: 187 ± 98 ng·h/mL
Cmax ([3]; Ces2^–/– (Ces2 cluster knockout), female Ces2^–/– mice, read-out: Cmax): 147 ± 96 ng/mL
Tmax [3, 4]: 55.8 ± 11.4 min
AUC(0-t) ([3]; female Ces2^–/–A mice): 218 ± 79 ng·h/mL
Cmax ([3]; female Ces2^–/–A mice, read-out: Cmax): 159 ± 56 ng/mL
Tmax ([3]; female Ces2^–/–A mice): 55.2 ± 12 min
AUC(0-t) ([3]; female Ces2^–/–V mice): 215 ± 100 ng·h/mL
Cmax ([3]; female Ces2^–/–V mice, read-out: Cmax): 156 ± 81 ng/mL
Tmax ([3]; female Ces2^–/–V mice): 51.6 ± 14.4 min
AUC(0-t) ([3]; female wild-type mice): 168 ± 41 ng·h/mL
Cmax ([3]; female wild-type mice, read-out: Cmax): 105 ± 36 ng/mL
Tmax ([3]; female wild-type mice): 30 ± 16.2 min
Cmax ([3]; female wild-type, Ces2^–/–, Ces2^–/–A and Ces2^–/–V mice, read-out: mean Cmax, range over the mouse models): 105 to 159 ng/mL
Structure (SMILES): O=c1[nH]cc(F)c(=O)[nH]1 [5-FU, 5-fluorouracil, reference compound]
